In ChEMBL document CHEMBL3994669, “Curcumin May (Not) Defy Science” (2017):

Assays:
Assay type in all cases: functional
Homo sapiens [1] = test: Antirheumatoid arthritic activity in patient assessed as visual analogue scale at 50 mg, po bid for 8 weeks (reference value: 78.25 +/- 11.25)
Homo sapiens [2] = test: Antirheumatoid arthritic activity in patient assessed as disease activity score at 50 mg, po bid for 8 weeks (reference value: 6.72 +/- 0.87)
Homo sapiens [3] = test: Antirheumatoid arthritic activity in patient assessed as disease activity score at 500 mg, po bid for 8 weeks (reference value: 6.4 +/- 0.73)
Homo sapiens [4] = test: Anti-inflammatory activity in COPD patient assessed as change in BMI at 90 mg, po bid for 24 weeks (reference value: -0.7%)
Homo sapiens [5] = test: Antirheumatoid arthritic activity in patient assessed as disease activity score at 500 mg, po bid for 8 weeks in presence of diclofenac sodium (reference value: 6.44 +/- 0.51)
Homo sapiens [6] = test: Anti-inflammatory activity in COPD patient assessed as change in gammaGTP level at 90 mg, po bid for 24 weeks (-1.2%)
Homo sapiens [7] = test: Anti-inflammatory activity in COPD patient assessed as change in creatinine level at 90 mg, po bid for 24 weeks (1.4%)
Homo sapiens [8] = test: Anti-inflammatory activity in COPD patient assessed as change in HbA1c level at 90 mg, po bid for 24 weeks relative to placebo treated control
Homo sapiens [9] = test: Anti-inflammatory activity in COPD patient assessed as change in SAA-LDL level at 90 mg, po bid for 24 weeks (10.8%)
Homo sapiens [10] = test: Anti-inflammatory activity in COPD patient assessed as change in DBP at 90 mg, po bid for 24 weeks (reference value: 2.9%)
Homo sapiens [11] = test: Antirheumatoid arthritic activity in patient assessed as visual analogue scale at 500 mg, po bid for 8 weeks in presence of diclofenac sodium (reference value: 77.25 +/- 9.65)
Homo sapiens [12] = test: Anti-inflammatory activity in COPD patient assessed as change in AT-LDL level at 90 mg, po bid for 24 weeks (14.8%)
Homo sapiens [13] = test: Anti-inflammatory activity in COPD patient assessed as change in HDL-C level at 90 mg, po bid for 24 weeks (2%)
Homo sapiens [14] = test: Anti-inflammatory activity in COPD patient assessed as change in C-reactive protein level at 90 mg, po bid for 24 weeks (11.1%)
Homo sapiens [15] = test: Anti-inflammatory activity in COPD patient assessed as change in forced expiratory volume in 1 second at 90 mg, po bid for 24 weeks (-3.6%)
Homo sapiens [16] = test: Antirheumatoid arthritic activity in patient assessed as visual analogue scale at 500 mg, po bid for 8 weeks (reference value: 68.57 +/- 17.14)
Homo sapiens [17] = test: Anti-inflammatory activity in COPD patient assessed as change in blood sugar level at 90 mg, po bid for 24 weeks (14.5%)
Homo sapiens [18] = test: Anti-inflammatory activity in COPD patient assessed as change in LDL-C level at 90 mg, po bid for 24 weeks (11.4%)
Homo sapiens [19] = test: Anti-inflammatory activity in COPD patient assessed as change in uric acid level at 90 mg, po bid for 24 weeks (2.3%)
Homo sapiens [20] = test: Anti-inflammatory activity in COPD patient assessed as change in triglyceride level at 90 mg, po bid for 24 weeks (14.5%)
Homo sapiens [21] = test: Anti-inflammatory activity in COPD patient assessed as change in SBP at 90 mg, po bid for 24 weeks (reference value: 1.4%)

`O=C([O-])Cc1ccccc1Nc1c(Cl)cccc1Cl.[Na+]` [DICLOFENAC SODIUM] was tested, and the Activity (Homo sapiens [1]) was 39.17 and the Activity (Homo sapiens [2]) was 3.89.

`COc1cc(/C=C/C(=O)CC(=O)/C=C/c2ccc(O)c(OC)c2)ccc1O` [CURCUMIN] gave an Activity (Homo sapiens [3]) of 3.55, an Activity (Homo sapiens [4]) of 0.9% and an Activity (Homo sapiens [5]) of 3.58. The Activity (Homo sapiens [6]) was -5.7%, the Activity (Homo sapiens [7]) was 2.9% and the Activity (Homo sapiens [8]) was 0.4%. The Activity (Homo sapiens [9]) was -2%, the Activity (Homo sapiens [10]) was 3.5% and the Activity (Homo sapiens [11]) was 34.29. The Activity (Homo sapiens [12]) was -1.6%, the Activity (Homo sapiens [13]) was -2.8% and the Activity (Homo sapiens [14]) was -12.5%. The Activity (Homo sapiens [15]) was -1.9%, the Activity (Homo sapiens [16]) was 27.5 and the Activity (Homo sapiens [17]) was 5.8%. It also gave an Activity (Homo sapiens [18]) of 4.6%, an Activity (Homo sapiens [19]) of 2.4% and an Activity (Homo sapiens [20]) of 9.2%. For the same compound, the Activity (Homo sapiens [21]) was -1.3%.
